Consider 1 molecule from patent US7622271B2, “Identification of aging genes through large-scale analysis” (University of Washington, priority 2004, dated 2009).

Structures are written as SMILES. Where two headings read alike, the source gives them in different places.

This test concerns yeast cells. The note with it: for life span: yeast replicative life span. The method, then: FIG. 2 illustrates replicative life span (“RLS”) analysis in yeast. […] A mother cell is a yeast cell that has produced one or more daughter cells. […] The total number of mitotic divisions completed by a given mother cell is the replicative life span for that mother cell. One indicator of senescence in yeast is the inability to produce daughter cells.
A large-scaled, life-span analysis is performed as follows. Approximately three days before initiating a life-span-determination assay, a set of 95 strains contained in a yeast alpha-haploid-deletion collection (Open Biosystems), is transferred to a 96-well plate containing YPDagar using a FX robot, so that each strain occupies one well of a 96-well plate. Concurrently, “wildtype” reference cells (BY4742) are plated within an empty well of the 96-well test plate. For 1-2 days, plated cells are allowed to grow on rich medium, such as YPD, at 30° C. Cells are patched onto life-span-measuring plates containing YPD so that approximately 12 strains are plated per plate the night, or approximately 12 hours, before initiating life-span analysis. A life-span experiment is initiated by gridding a region of the plate distal to growing cells, to which 5 cells of each strain of 12 strains are transferred by micromanipulation. Cells are incubated for two hours at 30° C. Then, virgin daughter cells of each deletion variant cell are selected, and original mother cells are removed. Such virgin daughter cells are monitored for de novo production of daughters at 2-3 hour intervals. Produced daughters are individually removed, and tabulated. Mother cells are placed back at 30° C. to allow continued growth. During evening hours, cells are moved to 4° C. so that the cell division rate is reduced to one cell division per evening. The following day, cells are placed at 30° C. to resume growth. This process is continued for a period of time, approximately two weeks, to allow cells of each variant strain to exhaust its proliferative potential. The total number of daughter cells produced by each mother variant cell is tabulated, and determined RLS values are entered into a database.

`CS(=N)(=O)CC[C@H](N)C(=O)O` (stereo partly drawn) [MSX, methionine sulfoximine]: the life span result is “significantly increases life span” (50 uM, preliminary experiments); “significantly increases life span” (100 uM, preliminary experiments); “significantly increases life span” (1 mM, preliminary experiments); “significantly increases life span” (2.5 mM, preliminary experiments). Where the note is “1 mM (maximal life span extension), preliminary experiments”, the “increase in mean replicative life span” value was 25-30%. Also, the “replicative life span in yeast” value (exposure of yeast cells to MSX) was “extends replicative life span”.
